Assay results: ChEMBL document CHEMBL3124779, “Discovery of ABT-267, a pan-genotypic inhibitor of HCV NS5A” (J Med Chem, 2014)
pEC50: −log10 of the molar value. Converted amounts (≈) assume the structure as drawn.

Legend:
[1] = Kinetic solubility of the compound in 10 mM of phosphate buffer at pH 7.2 by CLND method; type: physicochemical; settings: read-out: Kinetic_solubility
Hepatitis C virus [2] = assay: Antiviral activity against HCV1a H77 infected in human HuH7 cells assessed as inhibition of viral replication after 4 days by luciferase reporter gene assay in presence of 40% human plasma; type: functional, organism-based, Hepacivirus hominis; settings: genotype 1a H77, Huh-7, Plasma, 96 h
[3] = Clearance in rat at 3 mg/kg, iv; type: ADME, organism-based; parameters: dose 3 mg/kg, route intravenous; settings: in vivo
Hepatitis C virus [4] = assay: Ratio of EC50 for HCV1b Con1 infected in human HuH7 cells in presence of 40% human plasma to EC50 for HCV1b Con1 infected in human HuH7 cells in absence of 40% human plasma; type: functional, Hepacivirus hominis, isolate Con1, Huh-7
[5] = Lipophilicity, log D of the compound at pH 7.4 by HPLC analysis; type: physicochemical; settings: buffer
Hepatitis C virus [6] = assay: Antiviral activity against HCV1b Con1 infected in human HuH7 cells assessed as inhibition of viral replication after 4 days by luciferase reporter gene assay; type: functional, organism-based, Hepacivirus hominis; settings: isolate Con1, Huh-7, 96 h
Hepatitis C virus [7] = assay: Ratio of EC50 for HCV1a H77 infected in human HuH7 cells in presence of 40% human plasma to EC50 for HCV1a H77 infected in human HuH7 cells in absence of 40% human plasma; type: functional, Hepacivirus hominis, genotype 1a H77, Huh-7
[8] = AUC in rat at 3 mg/kg, po; type: ADME, organism-based; parameters: dose 3 mg/kg, route oral; settings: plasma
Hepatitis C virus [9] = assay: Antiviral activity against HCV1b Con1 infected in human HuH7 cells assessed as inhibition of viral replication after 4 days by luciferase reporter gene assay in presence of 40% human plasma; type: functional, organism-based, Hepacivirus hominis; settings: isolate Con1, Huh-7, Plasma, 96 h
[10] = Cmax in rat at 3 mg/kg, po; type: ADME, organism-based; parameters: dose 3 mg/kg, route oral; settings: in vivo
Hepatitis C virus [11] = assay: Antiviral activity against HCV1a H77 infected in human HuH7 cells assessed as inhibition of viral replication after 4 days by luciferase reporter gene assay; type: functional, organism-based, Hepacivirus hominis; settings: genotype 1a H77, Huh-7, 96 h
[12] = Tmax in rat at 3 mg/kg, po; type: ADME, organism-based; parameters: dose 3 mg/kg, route oral; settings: in vivo
[13] = Oral bioavailability in rat at 3 mg/kg; type: ADME, organism-based; settings: in vivo
[14] = Metabolic stability in rat liver microsomes assessed as compound remaining after 30 mins; type: ADME; settings: read-out: Stability
[15] = Metabolic stability in human liver microsomes assessed as compound remaining after 30 mins; type: ADME; settings: read-out: Stability
[16] = Volume of distribution at steady state in rat at 3 mg/kg, iv; type: ADME, organism-based; parameters: dose 3 mg/kg, route intravenous; settings: in vivo, read-out: Vdss
[17] = Half life in rat at 3 mg/kg, iv; type: ADME, organism-based; parameters: dose 3 mg/kg, route intravenous; settings: in vivo
[18] = Half life in rat at 3 mg/kg, po; type: ADME, organism-based; parameters: dose 3 mg/kg, route oral; settings: in vivo

SMILES | solubility kinetic [1] | pEC50 (Hepatitis C virus [2]) | clearance [3] | Ratio EC50 (Hepatitis C virus [4]) | logD [5] | pEC50 (Hepatitis C virus [6]) | Ratio EC50 (Hepatitis C virus [7]) | AUC [8] | pEC50 (Hepatitis C virus [9]) | Cmax [10] | pEC50 (Hepatitis C virus [11]) | Tmax [12] | bioavailability [13] | remaining at 0.5 h [14] | remaining at 0.5 h [15] | Vd [16] | half-life [17] | half-life [18]
COC(=O)N[C@H](C(=O)N1CCC[C@H]1C(=O)Nc1ccc([C@@H]2CC[C@@H](c3ccc(NC(=O)[C@@H]4CCCN4C(=O)[C@@H](NC(=O)OC)C(C)(C)C)cc3)N2c2ccc(F)cc2)cc1)C(C)(C)C | 4.4 µM (≈ 3.89 µg/mL) | 7.81 | < 6.5 mL/min/kg | 88 | 5.2 | 11.22 | 59 | 1850 ng·h/mL | 9.28 | 110 ng/mL | 9.58 | 3 h | 23% | 56% | 52% |  |  | 
CC[C@H](NC(=O)OC)C(=O)N1CCC[C@H]1C(=O)Nc1ccc([C@@H]2CC[C@@H](c3ccc(NC(=O)[C@@H]4CCCN4C(=O)[C@H](CC)NC(=O)OC)cc3)N2c2ccc(F)cc2)cc1 |  | 7.47 |  | 7 |  | 9.85 | 7 |  | 9.00 |  | 8.34 |  |  |  |  |  |  | 
COC(=O)N[C@H](C(=O)N1CCC[C@H]1C(=O)Nc1ccc([C@@H]2CC[C@@H](c3ccc(NC(=O)[C@@H]4CCCN4C(=O)[C@@H](NC(=O)OC)C(C)C)cc3)N2c2ccc(OC)cc2)cc1)C(C)C |  | 8.23 |  | 6 |  | 10.12 | 6 |  | 9.35 |  | 9.00 |  |  |  |  |  |  | 
COC(=O)N[C@H](C(=O)N1CCC[C@H]1C(=O)Nc1ccc([C@@H]2CC[C@@H](c3ccc(NC(=O)[C@@H]4CCCN4C(=O)[C@@H](NC(=O)OC)C(C)(C)C)cc3)N2c2ccc(C(C)(C)C)cc2)cc1)C(C)(C)C | 1.2 µM (≈ 1.11 µg/mL) | 8.97 | 2.83 mL/min/kg |  |  | 11.66 |  | 1250 ng·h/mL | 9.93 | 90 ng/mL | 10.68 | 5.3 h | 7.2% | 87% | 78% | 2.3 L/kg | 8.2 h | 11 h
COC(=O)N[C@H](C(=O)N1CCC[C@H]1C(=O)Nc1ccc([C@H]2CC[C@H](c3ccc(NC(=O)[C@@H]4CCCN4C(=O)[C@@H](NC(=O)OC)C(C)(C)C)cc3)N2c2ccc(C(C)(C)C)cc2)cc1)C(C)(C)C | 2.2 µM (≈ 2.03 µg/mL) | 8.37 | 2.83 mL/min/kg |  |  | 11.08 |  | 1390 ng·h/mL | 9.46 | 90 ng/mL | 9.91 | 2.5 h | 7.2% | 83% | 80% | 1.7 L/kg | 10.2 h | 12.4 h
COC(=O)N[C@H](C(=O)N1CCC[C@H]1C(=O)Nc1ccc([C@H]2CC[C@H](c3ccc(NC(=O)[C@@H]4CCCN4C(=O)[C@@H](NC(=O)OC)C(C)(C)C)cc3)N2c2ccc(N3CCOCC3)cc2)cc1)C(C)(C)C |  | 7.95 |  | 8 |  | 9.68 | 9 |  | 8.80 |  | 8.91 |  |  |  |  |  |  | 
COC(=O)N[C@H](C(=O)N1CCC[C@H]1C(=O)Nc1ccc([C@H]2CC[C@@H](c3ccc(NC(=O)[C@@H]4CCCN4C(=O)[C@@H](NC(=O)OC)C(C)C)cc3)N2c2ccc(F)cc2)cc1)C(C)C |  | 7.09 |  | 3 |  | 10.05 | 4 |  | 9.52 |  | 7.66 |  |  |  |  |  |  | 
CC[C@H](C)[C@H](NC(=O)OC)C(=O)N1CCC[C@H]1C(=O)Nc1ccc([C@@H]2CC[C@@H](c3ccc(NC(=O)[C@@H]4CCCN4C(=O)[C@@H](NC(=O)OC)[C@@H](C)CC)cc3)N2c2ccc(F)cc2)cc1 (mixture of isomers) |  | 8.01 |  | 6 |  | 10.52 | 7 |  | 9.77 |  | 8.88 |  |  |  |  |  |  | 
CC[C@@H](C)[C@H](NC(=O)OC)C(=O)N1CCC[C@H]1C(=O)Nc1ccc([C@@H]2CC[C@@H](c3ccc(NC(=O)[C@@H]4CCCN4C(=O)[C@@H](NC(=O)OC)[C@H](C)CC)cc3)N2c2ccc(F)cc2)cc1 (mixture of isomers) |  | 8.18 |  | 9 |  | 11.00 | 32 |  | 10.05 |  | 9.69 |  |  |  |  |  |  | 
COC(=O)N[C@H](C(=O)N1CCC[C@H]1C(=O)Nc1ccc([C@@H]2CC[C@@H](c3ccc(NC(=O)[C@@H]4CCCN4C(=O)[C@@H](NC(=O)OC)c4ccccc4)cc3)N2c2ccc(F)cc2)cc1)c1ccccc1 (mixture of isomers) |  | 7.64 |  | 37 |  | 11.70 | 22 |  | 10.14 |  | 8.97 |  |  |  |  |  |  | 
COC(=O)N[C@H](C(=O)N1CCC[C@H]1C(=O)Nc1ccc([C@@H]2CC[C@@H](c3ccc(NC(=O)[C@@H]4CCCN4C(=O)[C@@H](NC(=O)OC)C(C)(C)O)cc3)N2c2ccc(F)cc2)cc1)C(C)(C)O (mixture of isomers) |  | 7.74 |  | 52 |  | 10.30 | 30 |  | 8.59 |  | 9.22 |  |  |  |  |  |  | 
COC(=O)N[C@H](C(=O)N1CCC[C@H]1C(=O)Nc1ccc([C@@H]2CC[C@@H](c3ccc(NC(=O)[C@@H]4CCCN4C(=O)[C@@H](NC(=O)OC)C(C)C)cc3)N2c2ccc(C)cc2)cc1)C(C)C (mixture of isomers) |  | 8.36 |  | 5 |  | 10.40 | 6 |  | 9.69 |  | 9.14 |  |  |  |  |  |  | 
COC(=O)N[C@H](C(=O)N1CCC[C@H]1C(=O)Nc1ccc([C@@H]2CC[C@@H](c3ccc(NC(=O)[C@@H]4CCCN4C(=O)[C@@H](NC(=O)OC)C(C)C)cc3)N2c2ccc(Cl)cc2)cc1)C(C)C (mixture of isomers) |  | 8.39 |  | 10 |  | 10.52 | 11 |  | 9.52 |  | 9.43 |  |  |  |  |  |  | 
COC(=O)N[C@H](C(=O)N1CCC[C@H]1C(=O)Nc1ccc([C@@H]2CC[C@@H](c3ccc(NC(=O)[C@@H]4CCCN4C(=O)[C@@H](NC(=O)OC)C(C)C)cc3)N2c2ccc(Br)cc2)cc1)C(C)C (mixture of isomers) |  | 8.35 |  | 13 |  | 11.17 | 16 |  | 10.05 |  | 9.54 |  |  |  |  |  |  | 
COC(=O)N[C@H](C(=O)N1CCC[C@H]1C(=O)Nc1ccc([C@@H]2CC[C@@H](c3ccc(NC(=O)[C@@H]4CCCN4C(=O)[C@@H](NC(=O)OC)C(C)C)cc3)N2c2ccc(O)cc2)cc1)C(C)C (mixture of isomers) |  | 6.62 |  | 9 |  | 8.18 | 11 |  | 7.23 |  | 7.64 |  |  |  |  |  |  | 
COC(=O)N[C@H](C(=O)N1CCC[C@H]1C(=O)Nc1ccc([C@@H]2CC[C@@H](c3ccc(NC(=O)[C@@H]4CCCN4C(=O)[C@@H](NC(=O)OC)C(C)C)cc3)N2c2ccc(C(C)C)cc2)cc1)C(C)C (mixture of isomers) |  | 9.15 |  | 11 |  | 11.10 | 21 |  | 10.07 |  | 10.48 |  |  |  |  |  |  | 
COC(=O)N[C@H](C(=O)N1CCC[C@H]1C(=O)Nc1ccc([C@@H]2CC[C@@H](c3ccc(NC(=O)[C@@H]4CCCN4C(=O)[C@@H](NC(=O)OC)C(C)C)cc3)N2c2ccc(-c3ccccc3)cc2)cc1)C(C)C (mixture of isomers) |  | 8.77 |  | 23 |  | 10.96 | 19 |  | 9.59 |  | 9.05 |  |  |  |  |  |  | 
